Data from patent US7179819B2, “VLA-4 inhibitor compounds” (Daiichi Pharmaceutical Co., Ltd., priority 1999, dated 2007).

Compound	melting point [°C]
Cc1ccccc1NC(=O)Nc1ccc(CC(=O)N2CCC[C@H]2COC2CCC(C(=O)O)CC2)cc1 (stereo partly drawn) [Compound 177, 4-[[1-[4-[N′-(2-methylphenyl)ureido]phenylacetyl]-(2S)-pyrrolidinyl]methoxy]cyclohexane carboxylic acid]	107 to 111
COc1cc(CC(=O)N2C3CCCCC3C[C@H]2COC2CCC(C(=O)O)CC2)ccc1NC(=O)Nc1ccccc1Cl (stereo partly drawn) [Compound 178, cis-4-[1-[4-[N′-(2-chlorophenyl)ureido]-3-methoxylphenylacetyl]-(2S)-octahydroindolylmethoxy]cyclohexanecarboxylic acid]	120 to 121
COc1cc(CC(=O)N2CC[C@H](Oc3ccc(C(=O)O)cc3)C2)ccc1NC(=O)Nc1ccccc1C [Compound 182, 4-[1-[3-methoxy-4-[N′-(2-methylphenyl)ureido]phenylacetyl]-(3S)-pyrrolidinyloxy]benzoic acid]	131 to 135
COc1cc(CC(=O)N2CC[C@@H](Oc3ccc(C(=O)O)cc3)C2)ccc1NC(=O)Nc1ccccc1C [Compound 185, 4-[1-[3-methoxy-4-[N′-(2-methylphenyl)ureido]phenylacetyl]-(3R)-pyrrolidinyloxy]benzoic acid]	158 to 162
COc1cc(CC(=O)N2CC[C@@H](Oc3ccc(C(=O)O)cc3)C2)ccc1NC(=O)Nc1ccccc1Br [Compound 187, 4-[1-[4-[N′-(2-bromophenyl)ureido]-3-methoxyphenylacetyl]-(3R)-pyrrolidinyloxy]benzoic acid]	175 to 177
COc1cc(CC(=O)NCCOc2ccc(C(=O)O)cc2[N+](=O)[O-])ccc1NC(=O)Nc1ccccc1C [Compound 257, 3-nitro-4-[2-[3-methoxy-4-[N′-(2-methylphenyl)ureido]phenylacetyl]aminoethoxy]benzoic acid]	112 to 115
COc1cc(CC(=O)N2CCN(c3ccc(C(=O)O)cc3)CC2)ccc1NC(=O)Nc1ccccc1C [Compound 259]	240 to 245
Cc1ccccc1NC(=O)Nc1ccc(CC(=O)N[C@@H](C)COc2ccc(C(=O)O)cc2)cc1 [Compound 273, (S)-4-[2-[4-[N′-(2-methylphenyl)ureido]phenylacetylamino]-1-propoxy]benzoic acid]	262 to 265
COc1cc(CC(=O)N(C)CCOc2ccc(C(=O)O)cc2N(C)C)ccc1NC(=O)Nc1ccccc1C [Compound 276, 3-dimethylamino-4-[[2-[3-methoxy-4-[N′-(2-methylphenyl)ureido]phenylacetyl]methylamino]ethoxy]benzoic acid]	125 to 130
Cc1ccccc1NC(=O)Nc1ccc(CC(=O)N(C)CCOc2ccc(C(=O)O)cc2N(C)C)cc1 [Compound 278]	110 to 115
COc1cc(CC(=O)N[C@@H](C)COc2ccc(C(=O)O)cc2Cl)ccc1NC(=O)Nc1ccccc1F [Compound 281, (S)-3-chloro-4-[2-[3-methoxy-4-[N′-(2-fluorophenyl)ureido]phenylacetylamino]-1-propoxy]benzoic acid]	188 to 191
COc1cc(CC(=O)N(C)CCNc2ccc(C(=O)O)cc2)ccc1NC(=O)Nc1ccccc1C [Compound 282, 4-[[2-[3-methoxy-4-[N′-(2-methylphenyl)ureido]phenylacetyl]methylamino]ethylamino]benzoic acid]	115 to 120
COc1cc(CC(=O)N(C)[C@@H](C)COc2ccc(C(=O)O)cc2Cl)ccc1NC(=O)Nc1ccccc1F [Compound 283, (S)-3-chloro-4-[2-[N-methyl-N-[3-methoxy-4-[N′-(2-fluorophenyl)ureido]phenylacetyl]amino]-1-propoxy]benzoic acid]	142 to 147
COc1cc(CC(=O)N(C)[C@@H](C)COc2ccc(C(=O)O)cc2Cl)ccc1NC(=O)Nc1ccccc1C [Compound 284]	125 to 130
COc1cc(CC(=O)N(C)CCOc2ccc(C(=O)O)cc2NC(C)C)ccc1NC(=O)Nc1ccccc1C [Compound 285, 3-isopropylamino-4-[[2-[3-methoxy-4-[′-(2-methylphenyl)ureido]phenylacetyl]methylamino]ethoxy]benzoic acid]	130 to 135
COc1cc(CC(=O)N(Cc2ccccc2)[C@@H](C)COc2ccc(C(=O)O)cc2Cl)ccc1NC(=O)Nc1ccccc1F [Compound 287, (S)-3-chloro-4-[2-[N-benzyl-N-[3-methoxy-4-[N′-(2-fluorophenyl)ureido]phenylacetyl]amino]-1-propoxy]benzoic acid]	125 to 130
COc1cc(CC(=O)N(C)CCOc2ccc(C(=O)O)cc2N2CCCCC2)ccc1NC(=O)Nc1ccccc1F [Compound 289, 3-(1-piperidinyl)-4-[[2-[3-methoxy-4-[N′-(2-fluorophenyl)ureido]phenylacetyl]methylamino]ethoxy]benzoic acid]	125 to 130
COc1cc(CC(=O)N(C)CCOc2ccc(C(=O)O)cc2N2CCCCC2)ccc1NC(=O)Nc1ccccc1C [Compound 291, 3-(1-piperidinyl)-4-[[2-[3-methoxy-4-[N′-(2-methylphenyl)ureido]phenylacetyl]methylamino]ethoxy]benzoic acid]	120 to 125
COc1cc(CC(=O)N[C@@H](C)COc2ccc(C(=O)O)cc2N)ccc1NC(=O)Nc1ccccc1C [Compound 293, (S)-3-amino-4-[2-[3-methoxy-4-[N′-(2-methylphenyl)ureido]phenylacetylamino]-1-propoxy]benzoic acid]	200 to 204

Further lines, results first:

melting point [°C]	Compound
108 to 111	COc1cc(CC(=O)N2CCC[C@H]2COC2CCC(C(=O)O)CC2)ccc1NC(=O)Nc1ccccc1Br (stereo partly drawn) [Compound 176, 4-[1-[4-[N′-(2-bromophenyl)ureido]-3-methoxylphenylacetyl]-(2S)-pyrrolidinyl]methoxy cyclohexanecarboxilic acid]
190 to 193	COc1cc(CC(=O)N2CC[C@H](Oc3ccc(C(=O)O)cc3)C2)ccc1NC(=O)Nc1ccccc1Cl [Compound 183, 4-[1-[4-[N′-(2-chlorophenyl)ureido]-3-methoxyphenylacetyl]-(3S)-pyrrolidinyloxy]benzoic acid]
173 to 175	COc1cc(CC(=O)N2CC[C@H](Oc3ccc(C(=O)O)cc3)C2)ccc1NC(=O)Nc1ccccc1Br [Compound 184, 4-[1-[4-[N′-(2-bromophenyl)ureido]-3-methoxyphenylacetyl]-(3S)-pyrrolidinyloxy]benzoic acid]
193 to 194	COc1cc(CC(=O)N2CC[C@@H](Oc3ccc(C(=O)O)cc3)C2)ccc1NC(=O)Nc1ccccc1Cl [Compound 186, 4-[1-[4-[N′-(2-chlorophenyl)ureido]-3-methoxyphenylacetyl]-(3R)-pyrrolidinyloxy]benzoic acid]
180 to 181	COc1cc(CC(=O)NCCOc2ccc(C(=O)O)cc2OC)ccc1NC(=O)Nc1ccccc1C [Compound 255, 3-methoxy-4-[2-[3-methoxy-4-[N′-(2-methylphenyl)ureido]phenylacetyl]aminoethoxy]benzoic acid]
168 to 169	COc1cc(CC(=O)N[C@H](C)COc2ccc(C(=O)O)cc2OC)ccc1NC(=O)Nc1ccccc1C [Compound 260, (R)-3-methoxy-4-[2-[3-methoxy-4-[N′-(2-methylphenyl)ureido]phenylacetylamino]-1-propoxy]benzoic acid]
155 to 160	COc1cc(CC(=O)N(CCOc2ccc(C(=O)O)cc2OC)CCN2CCN(C)CC2)ccc1NC(=O)Nc1ccccc1C [Compound 263]
198 to 201	COc1cc(CC(=O)N[C@@H](C)COc2ccc(C(=O)O)cc2)ccc1NC(=O)Nc1ccccc1C [Compound 272, (S)-4-[2-[3-methoxy-4-[N′-(2-methylphenyl)ureido]phenylacetylamino]-1-propoxy]benzoic acid]
228 to 231	Cc1ccccc1NC(=O)Nc1ccc(CC(=O)N[C@@H](C)COc2ccc(C(=O)O)cc2Cl)cc1 [Compound 274, (S)-3-chloro-4-[2-[4-[N′-(2-methylphenyl)ureido]phenylacetylamino]-1-propoxy]benzoic acid]
198 to 201	COc1cc(CC(=O)N[C@@H](C)COc2ccc(C(=O)O)cc2Cl)ccc1NC(=O)Nc1ccccc1C [Compound 275, (S)-3-chloro-4-[2-[3-methoxy-4-[N′-(2-methylphenyl)ureido]phenylacetylamino]-1-propoxy]benzoic acid]
120 to 125	COc1cc(CC(=O)N(C)CCOc2ccc(C(=O)O)cc2N(C)C)ccc1NC(=O)Nc1ccccc1F [Compound 277, 3-dimethylamino-4-[[2-[3-methoxy-4-[N′-(2-fluorophenyl)ureido]phenylacetyl]methylamino]ethoxy]benzoic acid]
195 to 200	COc1cc(CC(=O)N(C)CCOc2ccc(C(=O)O)cc2NC(C)C)ccc1NC(=O)Nc1ccccc1F [Compound 279, 3-isopropylamino-4-[[2-[3-methoxy-4-[N′-(2-fluorophenyl)ureido]phenylacetyl]methylamino]ethoxy]benzoic acid]
125 to 130	COc1cc(CC(=O)N(C)CCN(C)c2ccc(C(=O)O)cc2)ccc1NC(=O)Nc1ccccc1C [Compound 286, 4-[[2-[3-methoxy-4-[N′-(2-methylphenyl)ureido]phenylacetyl]methylamino]ethyl]methylamino benzoic acid]
130 to 135	COc1cc(CC(=O)N(C)CCOc2ccc(C(=O)O)cc2N(C)C(C)C)ccc1NC(=O)Nc1ccccc1C [Compound 288, 3-(N-isopropyl-N-methylamino)-4-[[2-[3-methoxy-4-[N′-(2-methylphenyl)ureido]phenylacetyl]methylamino]ethoxy]benzoic acid]
125 to 130	COc1cc(CC(=O)N(C)CCOc2ccc(C(=O)O)cc2N)ccc1NC(=O)Nc1ccccc1C [Compound 290, 3-amino-4-[[2-[3-methoxy-4-[N′-(2-methylphenyl)ureido]phenylacetyl]methylamino]ethoxy]benzoic acid]
125 to 130	COc1cc(CC(=O)N(C)CCOc2ccc(C(=O)O)cc2N)ccc1NC(=O)Nc1ccccc1F [Compound 292, 3-amino-4-[[2-[3-methoxy-4-[N′-(2-fluorophenyl)ureido]phenylacetyl]methylamino]ethoxy]benzoic acid]
